# Source: ChEMBL document CHEMBL4229359, “Simple 2(5H)-furanone derivatives with selective cytotoxicity towards non-small cell lung cancer cell line A549 - Synthesis, structure-activity relationship and biological evaluation” (Eur J Med Chem, 2018)
# Experiments:
# BEAS-2B = assay: Cytotoxicity against human BEAS2B cells assessed as reduction in cell viability after 72 hrs by MTT assay; type: cell-based
# A549 [1] = assay: Cytotoxicity against human A549 cells assessed as reduction in cell viability after 72 hrs by MTT assay; type: functional, cell-based; conditions: A549, 72 h
# [2] = Selectivity index, ratio of IC50 for human BEAS2B cells to IC50 for human A549 cells; type: toxicity
# A549 [3] = assay: Cell cycle arrest in human A549 cells assessed as accumulation at G2/M-phase at 10 uM after 72 hrs by propidium iodide staining based flow cytometry (reference value: 6.3 to 7.2%); type: functional
# A549 [4] = assay: Cell cycle arrest in human A549 cells assessed as accumulation at G1-phase at 10 uM after 72 hrs by propidium iodide staining based flow cytometry (reference value: 75.2 to 76%); type: functional
# A549 [5] = assay: Cell cycle arrest in human A549 cells assessed as accumulation at S-phase at 10 uM after 72 hrs by propidium iodide staining based flow cytometry (reference value: 16.8 to 18.5%); type: functional
# A549 [6] = assay: Anticlonogenic activity against human A549 cells at 10 uM after 72 hrs by crystal violet staining based microscopic method relative to control; type: functional
Structure (SMILES),IC50 (BEAS-2B) [µM],IC50 (A549 [1]) [µM],log(RatioIC50) [2],Activity (A549 [3]) [%],Activity (A549 [4]) [%],Activity (A549 [5]) [%],Activity (A549 [6]) [%]
CC(C)(C)COC1OC(=O)C(Cl)=C1Nc1ccc(Br)cc1 (configuration not stated),30.9,28,0.23,,,,
C#Cc1cccc(Nc2ncnc3cc(OCCOC)c(OCCOC)cc23)c1 [ERLOTINIB],,,,6,74.5,18.5,75
CCCOC1OC(=O)C(Cl)=C1Cl (configuration not stated),3.5,3.6,-0.02,,,,
CC(C)(C)OC1OC(=O)C(Cl)=C1Cl (configuration not stated),23.1,14,0.22,,,,
CCOC1OC(=O)C(Cl)=C1Cl (configuration not stated),3.8,6.3,0.22,,,,
CCCCOC1OC(=O)C(Cl)=C1Nc1ccccc1 (configuration not stated),206,175,0.07,,,,
CC(C)OC1OC(=O)C(Cl)=C1Nc1ccc(F)cc1 (configuration not stated),> 400,186,,,,,
CCCCOC1OC(=O)C(Cl)=C1Nc1ccc(Cl)cc1 (configuration not stated),60.8,58.1,0.02,,,,
CCCCOC1OC(=O)C(Cl)=C1N1CCCCC1 (configuration not stated),172,93.3,0.27,,,,
CC(C)OC1OC(=O)C(Cl)=C1N1CCCCC1 (configuration not stated),> 400,> 400,,,,,
CC(C)OC1OC(=O)C(Cl)=C1Nc1ccc(Cl)cc1 (configuration not stated),77,39.6,0.29,,,,
